Common to all, as to format: physicochemical
Series [1] can be described thus: KF water content of stability samples. The settings on record: for KF water content: Duma bottles without desiccant. On the procedure: The water content of each sample was measured on a Metrohm 874 Oven Sample Processor at 150° C. with 851 Titrano Coulometer using Hydranal Coulomat AG oven reagent and nitrogen purge. Weighed solid samples were introduced into a sealed sample vial. Approximately 10 mg of sample was used per titration and duplicate determinations were made. […] Data collection and analysis were performed using Tiamo software.
The water content of samples of Form 1 (batch ref. LS19-0004-3-8002), Form 3 prepared by minimally-agitated drying ([…]; batch ref. 491-PAL-18) and Form 3 prepared by continuously-agitated filter drying (Example 5B trial 5; batch ref. 00173-005) was analysed by KF at the start of the stability study (initial) and after 2, 4 and 8 weeks storage in 60 ml Duma® bottles fitted with 45 mm Duma® caps (without desiccant) at 25° C./60% RH—see Table 16;
In a separate study, samples of Form 3 (Example 5.3; batch ref. 491-PAL-18) having an initial water content by KF of 2.3% w/w were tested for water content at various time points after storage double bagged in a HDPE bottle under various conditions as shown in Table 17.

The nature of series [2]: Typical water content of the crystalline forms. The protocol: The water content of a sample can be determined by any suitable means as will be apparent to one of skill in the art. In one embodiment, the water content is determined by Karl-Fischer titration. In one embodiment, the water content is determined by thermogravimetric analysis (TGA). In one embodiment, the water content is determined by gravimetric vapour sorption (GVS). After formation of the crystalline complex according to the invention, the water content may be as low as 1-3% w/w. However, after exposure of the complex to ambient conditions (25° C., 40% RH) the material typically equilibrates (e.g. over a period of 3-7 days) to a water content of up to 5-7% w/w. It has been found, however, that Form 3, once equilibrated to 5-7% w/w water, maintains physical form at 60% RH making it unexpectedly stable over the 0% and 60% humidity range.

The nature of series [3]: Kinetic solubility in biorelevant media. The settings on record: for Kinetic solubility, Mean conc: 37° C. On the procedure:
A small-scale kinetic solubility study was carried out at a nominal concentration of 200-400 mg/ml to ensure solid material remained at the end of the experiment for XRPD analysis. Approximately 100 mg of sample—Form 1 (batch ref L17-0004-S-8002) or Form 3 (Example 5.4.1 (batch ref. 491PAL22; A-19-0132)) was weighed into a 1 ml vial and 250 μl of 0.1 M HCl was added to the vial for the 15 and 30 minute timepoints and 500 μl of a 1:1 mixture of 0.1 M HCl and FaSSIF was added to the vial for the 60 and 180 minute timepoints, The vial was agitated and maintained at 37° C.
The study was carried out in duplicate. Each sample was centrifuged to remove suspended solids. An aliquot of the supernatant was transferred to a second vial for further centrifugation and then transferred to an LC vial, diluted with an appropriate solvent and analysed by HPLC for parent compound. The residual solids were analysed by XRPD.

A short description of series [4]: Variable humidity XRPD (VH-XRPD) at 25° C. From the text:
Non-ambient conditions: XRPD diffractograms were collected on a PANalytical Empyrean diffractometer using Cu Kα radiation (45 kV, 40 mA) in reflection geometry. The instrument is fitted with an Anton Paar CHC plus^+ stage fitted with graphite/Kapton windows and equipped with air cooling coupled with a proUmid MHG32 Modular Humidity Generator or a low vacuum pump system using an Edwards RV3 pump. A programmable divergence slit (in automatic mode), with a 10 mm fixed incident beam mask, Ni filter and 0.04 rad Soller slits were used on the incident beam. A PIXcel^3D detector, placed on the diffracted beam, was fitted with a programmable anti-scatter slit (in automatic mode) and 0.04 rad Soller slits. The software used for data collection was X'Pert Data Collector and the data analysed and presented using Diffrac Plus EVA or Highscore Plus. For variable humidity (VH-XRPD) experiments the samples were prepared and analysed in an Anton Paar chromed low-profile sample holder with silicon wafer insert. The measurement parameters are as per the standard screening data collection method (detailed above). For all variable humidity XRPD experiments, a pattern was recorded every hour. […] The Form 1 sample was loaded into the VH chamber, which was set to 40% RH and 25° C. and then the RH was decreased in 10% decrements to 10% RH followed by increasing the RH in 10% increments to 90% RH, while maintaining the temperature at 25° C. […] The sample then quickly transitioned from Form 1 at 80% RH to Form 2 at 90% RH. A variable humidity (VH) XRPD experiment was performed to examine how Form 3 exists under different RH conditions. […] The sample was stable as Form 2 for 8 hours at 80% RH. At 90% RH Form 2 existed for 2 hours before the sample deliquesced in the humidity chamber.

[5] abbreviates: 15 mins (simulated gastric), 0.1 M HCl, Form 3 = Example 5.4.1.
Where [6] appears, read: 30 mins (simulated gastric), 0.1 M HCl.
Setting [7] is: 60 mins (simulated intestinal), 1:1 0.1 M HCl and FaSSIF.
Where [8] appears, read: 180 mins (simulated intestinal), 1:1 0.1 M HCl and FaSSIF.

For the compound `C[S+]([O-])CCCCN=C=S.OCC1OC2OC3C(CO)OC(OC4C(CO)OC(OC5C(CO)OC(OC6C(CO)OC(OC7C(CO)OC(OC1C(O)C2O)C(O)C7O)C(O)C6O)C(O)C5O)C(O)C4O)C(O)C3O` (stereo not shown) [Form 1], the KF water content is 8.4 % w/w in series [1] (2 weeks, 25° C./60% RH); 6.5 % w/w in series [1] (4 weeks, 25° C./60% RH); 11.1 % w/w in series [1] (8 weeks, 25° C./60% RH); 8.6 % w/w in series [1] (Initial, 25° C./60% RH study). The Typical water content in series [2] is on record as 8-15 % w/w. For the same compound, the “XRPD analysis of residual solids” value in series [3] (15 mins (simulated gastric)), in series [3] (30 mins (simulated gastric)), in series [3] (60 mins (simulated intestinal)) and in series [3] (180 mins (simulated intestinal)) was “Form 1” in each case. For the same compound, the “Kinetic solubility, Mean conc” value in series [3] (setting [5]) is “approximately 300 mg/ml”; in series [3] (15 mins (simulated gastric), 0.1 M HCl, Form 3 = Example 5.4.1, listed as 1) it was 319 mg/mL; in series [3] (setting [6]), 318 mg/mL; in series [3] (setting [7]), “approximately 180 mg/ml”; in series [3] (60 mins (simulated intestinal), 1:1 0.1 M HCl and FaSSIF, listed as 1) it was 191 mg/mL; in series [3] (setting [8]) it was “approximately 180 mg/ml”. Moreover, the “Kinetic solubility, Mean conc” value in series [3] (180 mins (simulated intestinal), 1:1 0.1 M HCl and FaSSIF, listed as 1) is 180 mg/mL. The “solid state form (VH-XRPD)” value in series [4] (Form 1 sample, RH reduced from 40% to 30% RH, 25° C.) is listed as “intermediate phase”; in series [4] (Form 1 sample, RH reduced to 20% RH, 25° C.) it was “Form 3”; in series [4] (Form 1 sample, after drying to 10% RH, RH increased to 70% RH), “intermediate phase”; in series [4] (Form 1 sample, after drying to 10% RH, RH increased to 80% RH), “Form 1”; in series [4] (Form 1 sample, after drying to 10% RH, RH increased to 90% RH), “Form 2”.

In the case of `C[S+]([O-])CCCCN=C=S.OC[C@H]1O[C@@H]2O[C@H]3[C@H](O)[C@@H](O)[C@@H](O[C@H]4[C@H](O)[C@@H](O)[C@@H](O[C@H]5[C@H](O)[C@@H](O)[C@@H](O[C@H]6[C@H](O)[C@@H](O)[C@@H](O[C@H]7[C@H](O)[C@@H](O)[C@@H](O[C@H]1[C@H](O)[C@H]2O)O[C@@H]7CO)O[C@@H]6CO)O[C@@H]5CO)O[C@@H]4CO)O[C@@H]3CO` [Form 3], the “water content on extended exposure to high humidity” value in series [1] (up to 6 months) is on record as “does not increase significantly above about 5-6% w/w”. For the same compound, in series [2] (exposure to ambient conditions (25° C., 40% RH), e.g. 3-7 days), the “water content after equilibration at ambient conditions” value is 5-7 % w/w. The “XRPD analysis of residual solids” value in series [3] (15 mins (simulated gastric)) and in series [3] (30 mins (simulated gastric)) was “Form 1” in each case. Moreover, the “Kinetic solubility, Mean conc” value in series [3] (setting [5]) is “approximately 300 mg/ml”; in series [3] (15 mins (simulated gastric), 0.1 M HCl, Form 3 = Example 5.4.1, listed as 3), 298 mg/mL; in series [3] (setting [6]), 298 mg/mL; in series [3] (setting [7]), “approximately 180 mg/ml”; in series [3] (60 mins (simulated intestinal), 1:1 0.1 M HCl and FaSSIF, listed as 3), 171 mg/mL; in series [3] (setting [8]), “approximately 180 mg/ml”. The “Kinetic solubility, Mean conc” value in series [3] (180 mins (simulated intestinal), 1:1 0.1 M HCl and FaSSIF, listed as 3) was 157 mg/mL. In series [4] (25° C., increasing RH), the “RH at which the form starts to convert to a different form” value stood at 70%. The “solid state form (VH-XRPD)” value in series [4] (Form 3 sample, RH decreased to 70% RH, persisted to 40% RH) was “Form 2 converted to Form 1”; in series [4] (Form 3 sample, RH raised from 40% up to 60%, 25° C.) it was “Form 3 is maintained”; in series [4] (Form 3 sample, RH raised to 70%), “intermediate phase”; in series [4] (Form 3 sample, RH raised to 80%), “Form 2”; in series [4] (Form 3 sample, after dropping from 90% to 80% RH) it was “Form 2 returned as a highly crystalline material”. Besides, in series [4] (Form 3 sample, at 80% RH), the “time sample was stable as Form 2 (VH-XRPD)” value stood at 8 h. In addition, the “time Form 2 existed before the sample deliquesced (VH-XRPD)” value in series [4] (Form 3 sample, at 90% RH) amounted to 2 h.

(Values after patent US12590057B2, “Crystalline complexes” (Theracryf PLC, priority 2020, dated 2026).)
